Tests used:
GLP-1R = GLP-1R (Homo sapiens, UniProt P43220); assay: GLP-1R cAMP experiment (HTRF cAMP agonist detection); type: cell-based; settings: GLP-1R-HEK293 cells
Experimental: The initial concentration was 500 nM, the compounds were diluted according to a 4-fold gradient in a total of 10 concentrations, and the diluent was dimethyl sulfoxide.
• 1) 100 nL of each compound was transferred to a OptiPlate 384-well plate by using an Echo liquid transfer system; and • 2) the 384-well plate was centrifuged at 1000 rpm for 5 s.
• 1) According to a conventional cell thawing method, a GLP-1R-HEK293 cell line was rapidly thawed in a 37° C. water bath; • 2) the cell suspension was transferred to a 15 mL centrifuge tube containing 10 mL of 1×HBSS solution; • 3) at room temperature, the tube was centrifuged at 1000 rpm for 5 min, to collect cells; 4) a supernatant was discarded carefully, and attention was paid to avoid sucking away the cells; • 5) the centrifuge tube was flicked gently, so that the cells were loosened, and 10 mL of 1×HBSS solution was added to resuspend the cells. The cells were blown and beaten up and down by using a sterile pipette, until the cells were blown and beaten to a single-cell state; • 6) the cells were counted by using a Vi-cell counter, to determine the cell concentration and determine the cell activity; • 7) GLP-1R-HEK293 cells were resuspended in a cAMP detection buffer solution (from the above cAMP detection kit), and the concentration was 2.0×10^5/mL; and 8) 10 μL of the GLP-1R-HEK293 cells was transferred into the OptiPlate 384-well plate. 2.4 HTRF cAMP Agonist Detection • 1) The 384-well plate was incubated at room temperature for 20 min, then a cAMP detection reagent (from the above cAMP detection kit) was added; • 2) an electric multi-channel pipette was used to add 10 μL of the cAMP detection reagent to each well; • 3) the 384-well plate was covered by using a TopSeal-A film, and incubated at room temperature for 60 min; and • 4) the TopSeal-A film was removed, and a signal on an Envision instrument was read.

[1] = Oral pharmacokinetics in mice; type: in vivo, C57 mice; settings: 10 mg/kg
Experimental: Healthy male C57 mice (9 mice per compound, n=3), purchased from Shanghai Jihui Laboratory Animal Care Co., LTD, with an age of 6-8 weeks.
The mice were fasted overnight before oral administration, and drunk freely, and feeding was resumed after 4 h of the administration. According to the weight of the mice weighed before the administration, the administration dose was calculated. It was intragastrically administered, and the administration dose was 10 mg/kg. At 0.083 h, 0.25 h, 0.5 h, 1 h, 2 h, 4 h, 8 h, and 24 h after the administration to test animals, about 110 μL of whole blood were respectively collected from submandibular veins of the mice by a semi-continuous method, and placed in a test tube containing K2EDTA. The tube was placed on ice, and centrifuged within 30 min (2000 g, 5 min, 4° C.), plasma was collected, transferred to an appropriately labeled test tube, and frozen at −80° C. in a refrigerator.
A chromatographic column was Waters ACQUITY UPLC BEH C18 (2.1×50 mm, and 1.7 μm); mobile phase A: H2O-0.025% FA-1 mM NH4OAC, mobile phase B: ACN-0.025% FA-1 mM NH4OAC, flow rate: 0.60 mL/min, gradient elution program: start, 2% B, 0.2 min; 60% B, 0.7 min; 90% B, 1.50 min; 90% B, 2.0 min; 2% B, 2.01 min; 2.6 min, and stop; column temperature: 50° C.; and injection volume: 1 μL.
Mass spectrometry method: LC-MS/MS-49 (Triple Quad 6500+)(SCIEX, USA), the ion source was an ESI source, the detection mode was positive ion detection, and the scanning mode was a multi-reaction monitoring (MRM) mode, m/z: 446.20/321.10 Da (Glipizide, internal standard).
10 μL of a plasma sample was taken and 200 μL of an internal standard working solution (Glipizide, 50 ng/mL) was added, vortex was performed for 1 min, then the mixture was centrifuged at 5800 rpm for 10 min. 70 μL of a supernatant was transferred to a 96-well plate, and 1 μL of the supernatant was taken and injected into LC-MS/MS for analysis.
Pharmacokinetic (PK) parameters were calculated by using Phoenix WinNonlin 7.0; and the oral pharmacokinetic parameters of the mice, including AUC, Cmax, Tmax, T1/2 and the like, were estimated by using a non-compartmental model. […] PGP-46 T2

[2] = test system: hGLP-1R transgenic mouse B-hGLP-1R; assay: Mouse intraperitoneal glucose tolerance test (IPGTT); type: in vivo; settings: hGLP-1R mice, 10 mg/kg oral gavage
Source text: Specific steps were as follows: • 1) After the arrival of experimental animals (hGLP-1R transgenic mouse B-hGLP-1R, SPF-grade mouse, male, 6-8 weeks, and purchased from Baiosaitu Jiangsu Gene Biotechnology Co., Ltd.), all experimental animals were divided into one animal per cage and fed and adapted for 7 days before the start of the experiment (during which the health status of the animals was observed). At least 3 days before the start of IPGTT, the animals were weighed and solvent (0.5% methylcellulose solution) intragastric administration and intraperitoneal saline injection were performed. • 2) On the day before the experiment, the experimental animals were fasted overnight (14 h, 19:00-9:00), and at 9:00 am, the experimental animals were weighed and blood was collected from tail tips to measure the blood glucose.

[3] = test system: patients with Type-2 diabetes mellitus; settings: first-phase clinical; cited from earlier work

Chain of GLP-1R (P43220 24-463): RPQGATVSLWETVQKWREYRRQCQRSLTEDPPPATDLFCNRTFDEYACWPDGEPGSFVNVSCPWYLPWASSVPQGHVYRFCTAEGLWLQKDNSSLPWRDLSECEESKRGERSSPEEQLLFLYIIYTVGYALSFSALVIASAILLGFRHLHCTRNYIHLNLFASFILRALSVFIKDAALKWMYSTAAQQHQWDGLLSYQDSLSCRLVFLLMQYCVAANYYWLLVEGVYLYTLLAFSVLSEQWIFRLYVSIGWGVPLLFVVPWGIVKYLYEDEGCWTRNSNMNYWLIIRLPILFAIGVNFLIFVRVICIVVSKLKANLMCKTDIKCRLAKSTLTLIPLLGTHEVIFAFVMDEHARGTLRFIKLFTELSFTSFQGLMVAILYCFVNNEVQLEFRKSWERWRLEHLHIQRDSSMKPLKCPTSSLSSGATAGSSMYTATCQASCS

SMILES	EC50 (GLP-1R) [nM]	AUC(0-inf) ([1]; male, C57, mouse, in vivo, po) [ng·h/mL]	AUC(0-t) ([1]; male, C57, mouse, in vivo, po) [ng·h/mL]	Cmax ([1]; male, C57, mouse, in vivo, po) [ng/mL]	MRT inf ([1]; male, C57, mouse, in vivo, po) [h]	MRT last ([1]; male, C57, mouse, in vivo, po) [h]	Tmax ([1]; male, C57, mouse, in vivo, po) [h]	half-life ([1]; male, C57, mouse, in vivo, po) [h]	other results
C#Cc1ccc(COc2cccc(C3CCN(Cc4nc5ccc(C(=O)O)cc5n4C[C@@H]4CCO4)CC3)n2)c(F)c1 [Compound 1]	0.82	3560	3310	1700	1.8	1.5	0.5	2.2	–
C#Cc1ccc(COc2cccc(N3CCN(Cc4nc5ccc(C(=O)O)cc5n4C[C@@H]4CCO4)CC3)n2)c(F)c1 [Compound 2]	0.96	7010	6930	3170	3	2.8	0.5	2.6	blood glucose reducing effect ([2]; 2 g/kg glucose i.p.): significant blood glucose reducing effect; overall blood glucose-reducing effect compared with PF-06882961 ([2]; IPGTT): better than PF-06882961
CC#Cc1ccc(COc2cccc(N3CCN(Cc4nc5ccc(C(=O)O)cc5n4C[C@@H]4CCO4)CC3)n2)c(F)c1 [Compound 3]	0.8	–	–	–	–	–	–	–	–
O=C(O)c1ccc2nc(CN3CCN(c4cccc(OCc5ccc(C#CC6CC6)cc5F)n4)CC3)n(C[C@@H]3CCO3)c2c1 [Compound 4]	1.75	–	–	–	–	–	–	–	–
O=C(O)c1ccc2nc(CN3CCN(c4cccc(OCc5ccc(C#CCO)cc5F)n4)CC3)n(C[C@@H]3CCO3)c2c1 [Compound 5]	5.2	–	–	–	–	–	–	–	–
C#Cc1ccc(COc2cccc(N3CCN(Cc4nc5ccc(C(=O)O)cc5n4C[C@@H]4CCO4)CC3)n2)cc1 [Compound 7]	0.39	12500	12500	6170	2	2	0.5	3.1	–
C#Cc1ccc(COc2cccc(N3CCN(Cc4nc5ccc(C(=O)O)cc5n4C[C@@H]4CCO4)CC3)n2)c(Cl)c1 [Compound 8]	0.1	10900	10900	4370	2.5	2.5	1	2.3	–
C#Cc1ccc(COc2cccc(N3CCN(Cc4nc5ccc(C(=O)O)nc5n4C[C@@H]4CCO4)CC3)n2)c(F)c1 [Compound 9]	0.15	3920	3880	2620	1.4	1.3	0.5	1.4	–
C#Cc1ccc(COc2nc(N3CCN(Cc4nc5ccc(C(=O)O)cc5n4C[C@@H]4CCO4)CC3)ccc2F)c(F)c1 [Compound 10]	0.1	9800	9780	4350	2.6	2.5	0.5	2.7	–
N#Cc1ccc(COc2cccc(C3CCN(Cc4nc5ccc(C(=O)O)cc5n4C[C@@H]4CCO4)CC3)n2)c(F)c1 [PF-06882961, reference compound]	–	–	–	–	–	–	–	–	effects on blood glucose and weight [3]: significant effects on reducing blood glucose and weight; AUC(0-t) ([1]; male C57 mice, intragastric): 3427.0 ng·h/mL; AUC(0-∞) ([1]; male C57 mice, intragastric): 3444.0 ng·h/mL; Cmax ([1]; male C57 mice, intragastric): 4967.0 ng/mL; MRT(0-t) ([1]; male C57 mice, intragastric): 0.8 h; MRT(0-∞) ([1]; male C57 mice, intragastric): 0.8 h; T1/2 ([1]; male C57 mice, intragastric): 1.4 h; Tmax ([1]; male C57 mice, intragastric): 0.25 h

Continued, in another order:

EC50 (GLP-1R) [nM]	AUC(0-inf) ([1]; male, C57, mouse, in vivo, po) [ng·h/mL]	AUC(0-t) ([1]; male, C57, mouse, in vivo, po) [ng·h/mL]	Cmax ([1]; male, C57, mouse, in vivo, po) [ng/mL]	MRT inf ([1]; male, C57, mouse, in vivo, po) [h]	MRT last ([1]; male, C57, mouse, in vivo, po) [h]	Tmax ([1]; male, C57, mouse, in vivo, po) [h]	half-life ([1]; male, C57, mouse, in vivo, po) [h]	SMILES	other results
0.14	2280	2270	2030	1.9	1.8	0.5	3.9	C#Cc1ccc(COc2cccc(C3CCN(Cc4nc5c(F)cc(C(=O)O)cc5n4C[C@@H]4CCO4)CC3)n2)c(F)c1 [Compound 11]	–
0.41	–	–	–	–	–	–	–	C#Cc1ccc(COc2cccc(N3CCN(Cc4nc5c(F)cc(C(=O)O)cc5n4C[C@@H]4CCO4)CC3)n2)c(Cl)c1 [Compound 12]	–
0.85	–	–	–	–	–	–	–	C#Cc1ccc(COc2nc(N3CCN(Cc4nc5ccc(C(=O)O)cc5n4C[C@@H]4CCO4)CC3)ccc2F)cc1 [Compound 15]	–
1.07	–	–	–	–	–	–	–	C#Cc1ccc(COc2nc(N3CCN(Cc4nc5ccc(C(=O)O)nc5n4C[C@@H]4CCO4)CC3)ccc2F)cc1 [Compound 16]	–
0.56	5140	5130	2830	1.9	1.9	0.25	3	C#Cc1ccc(COc2nc(N3CCN(Cc4nc5ccc(C(=O)O)nc5n4C[C@@H]4CCO4)CC3)ccc2F)c(F)c1 [Compound 17]	–
0.37	4140	4130	1470	3.1	3.1	0.5	2.6	C#Cc1ccc(COc2nc(N3CCN(Cc4nc5ccc(C(=O)O)nc5n4C[C@@H]4CCO4)CC3)ccc2F)c(Cl)c1 [Compound 18]	–
0.51	10300	10300	3300	2.7	2.7	0.5	2.4	C#Cc1ccc(COc2nc(N3CCN(Cc4nc5ccc(C(=O)O)cc5n4C[C@@H]4CCO4)CC3)ccc2F)c(Cl)c1 [Compound 19]	–
0.59	–	–	–	–	–	–	–	C#Cc1ccc(COc2nc(C3CCN(Cc4nc5ccc(C(=O)O)nc5n4C[C@@H]4CCO4)CC3)ccc2F)c(F)c1 [Compound 20]	–
